Data taken from US7074784B2, “Medicaments against viral diseases” (priority 2000, dated 2006).

Experiments:
hepatitis B virus = assay: Antiviral action on hepatitis B virus in HepG2.2.15 cells (HBV DNA dot-blot hybridization); format: cell-based; conditions: 192 h, 8 days treatment, intra- or extracellular hepatitis B-specific DNA band reduced by 50% compared with untreated sample
Procedure: The antiviral action of the compounds of the invention on hepatitis B virus was investigated by methods based on those described by M. A. Sells et al., Proc. Natl. Acad. Sci. 84, 1005–1009 (1987) and B. E. Korba et al., Antiviral Research 19, 55–70 (1992).
The antiviral tests were carried out in 96-well microtiter plates. The first vertical row of the plate received only growth medium and HepG2.2.15 cells. It served as virus control.
Stock solutions of the test compounds (50 mM) were initially dissolved in DMSO, and further dilutions were prepared in the HepG2.2.15 growth medium. The compounds according to the invention were usually pipetted in a test concentration of 100 μM (1st test concentration) in each case into the second vertical test row of the microtiter plate and subsequently diluted in twofold steps 2^10 times in growth medium plus 2% by weight of fetal calf serum (volume 25 μl).
Each well of the microtiter plate then contained 225 μl of HepG2.2.15 cell suspension (5×10^4 cells/ml) in growth medium plus 2% by weight of fetal calf serum. The test mixture was incubated at 37° C. and 5% CO2 (v/v) for 4 days.
The supernatant was then aspirated off and discarded, and the wells received 225 μl of freshly prepared growth medium. The compounds according to the invention were each added anew as 10-fold concentrated solution in a volume of 25 μl. The mixtures were incubated for a further 4 days.
The supernatant and/or cells were then harvested and sucked by means of a vacuum onto 96-well dot-blot chambers covered with a nylon membrane (in accordance with the manufacturer's information).
After the supernatants or lysed cells had been transferred to the nylon membrane of the blot apparatus (see above), the intra- or extracellular supernatants of the HepG2.2.15 cells were denatured (1.5 M NaCl/0.5 N NaOH), neutralized (3 M NaCl/0.5 M Tris HCl, pH 7.5) and washed (2×SSC). The DNA was then baked onto the membrane by incubating the filters at 120° C. for 2–4 hours.
Detection of the viral DNA from the treated HepG2.2.15 cells on the nylon filters was usually carried out with nonradioactive, digoxigenin-labeled hepatitis B-specific DNA probes, each of which was labeled with digoxigenin, purified and employed for the hybridization in accordance with the manufacturer's information.
The prehybridization and hybridization took place in 5×SSC, 1× blocking reagent, 0.1% by weight N-lauroylsarcosine, 0.02% by weight SDS and 100 μg of herring sperm DNA. The prehybridization took place at 60° C. for 30 minutes, and the specific hybridization with 20 to 40 ng/ml of the digoxigenized, denatured HBV-specific DNA (14 hours, 60° C.). The filters were then washed.
The immunological detection of the digoxigenin-labeled DNA took place in accordance with the manufacturer's information:
The filters were washed and prehybridized in a blocking reagent (in accordance with the manufacturer's information). Hybridization was then carried out with an anti-DIG antibody coupled to alkaline phosphatase for 30 minutes. After a washing step, the substrate of alkaline phosphatase, CSPD, was added, incubated with the filters for 5 minutes, then packed in plastic film and incubated at 37° C. for a further 15 minutes. The chemiluminescence of the hepatitis B-specific DNA signals was visualized by exposing the filters to an X-ray film (incubation depending on signal strength: 10 minutes to 2 hours).
The half-maximum inhibitory concentration (IC50, 50% inhibitory concentration) was determined as the concentration at which the intra- or extracellular hepatitis B-specific band was reduced by the compound according to the invention by 50% compared with an untreated sample.

HepG2.2.15 cells = assay: Cytotoxicity determination in HepG2.2.15 cells; format: cell-based; conditions: 50% of the cells show a morphology comparable to the cell control
Source text: Before harvesting the supernatants to determine the antiviral effect, the HepG2.2.15 cells were examined under the light microscope or by means of biochemical detection methods (for example Alamar Blue stain or Trypan Blue stain) for cytotoxic changes.
Substance-induced cytotoxic or cytostatic changes in the HepG2.2.15 cells were detected, for example, under the light microscope as changes in cell morphology. Such substance-induced changes in the HepG2.2.15 cells compared with untreated cells were visible, for example, as cytolysis, vacuolation or altered cell morphology. […]
No cytotoxic changes were detectable at concentrations >10 μM of the compounds of the invention.

Row | Structure (SMILES) | melting point | IC50 (hepatitis B virus) | Tox50 (HepG2.2.15 cells)
1 | COC(=O)C1=C(CN2CCCC2)NC(c2ncc(F)cc2F)=NC1c1ccc(F)cc1Br (stereo not drawn) | 161 to 162 °C |  | 
2 | COC(=O)C1=C(CN2CCOCC2)NC(c2ncc(F)cc2F)=NC1c1ccc(Cl)cc1Cl (stereo not drawn) | 225 to 227 °C |  | 
3 | COC(=O)C1=C(CN2CCCC2)NC(c2ncc(F)cc2F)=NC1c1ccc(Cl)cc1Cl (stereo not drawn) | 168 to 170 °C |  | 
4 | COC(=O)C1=C(CN2CCSC2)NC(c2ncc(F)cc2F)=NC1c1ccc(Cl)cc1Cl (stereo not drawn) | 189 to 191 °C |  | 
5 | CCN(C)CC1=C(C(=O)OC)C(c2ccc(Cl)cc2Cl)N=C(c2ncc(F)cc2F)N1 (stereo not drawn) | 142 to 143 °C |  | 
6 | COC(=O)C1=C(CN2CCSCC2)NC(c2ncccc2F)=NC1c1ccc(F)cc1Br (stereo not drawn) | 128 to 131 °C |  | 
7 | COC(=O)C1=C(CN2CCSC2)NC(c2ncccc2F)=NC1c1ccc(Cl)cc1Cl (stereo not drawn) | 175 °C |  | 
8 | COC(=O)C1=C(CN2CCSCC2)NC(c2ncccc2F)=NC1c1ccc(Cl)cc1Cl (stereo not drawn) | 137 °C |  | 
9 | COC(=O)C1=C(CN2CCSC2)NC(c2ncccc2F)=NC1c1ccc(F)cc1Br (stereo not drawn) | 172 to 173 °C |  | 
10 | COC(=O)C1=C(CN(CCO)CCO)NC(c2ncccc2F)=NC1c1ccc(Cl)cc1Cl (stereo not drawn) | 155 °C |  | 
11 | COC(=O)C1=C(CN2CCSC2)NC(c2ncc(F)cc2F)=NC1c1ccc(F)cc1Br (stereo not drawn) | 183 to 184 °C |  | 
12 | COC(=O)C1=C(CN2CCSCC2)NC(c2ncc(F)cc2F)=NC1c1ccc(F)cc1Br (stereo not drawn) | 173 to 174 °C |  | 
13 | COC(=O)C1=C(CN(CCO)CCO)NC(c2ncc(F)cc2F)=NC1c1ccc(Cl)cc1Cl (stereo not drawn) | 144 to 145 °C |  | 
14 | COC(=O)C1=C(CN(C)CCO)NC(c2ncc(F)cc2F)=NC1c1ccc(F)cc1Br (stereo not drawn) | 114 to 116 °C |  | 
15 | COC(=O)C1=C(CN(C)CCO)NC(c2ncccc2F)=NC1c1ccc(F)cc1Cl (stereo not drawn) | 117 to 119 °C |  | 
16 | COC(=O)C1=C(CN2CCSCC2)NC(c2ncccc2F)=NC1c1ccc(F)cc1Cl (stereo not drawn) | 145 °C |  | 
17 | COC(=O)C1=C(CN2CCSC2)NC(c2ncccc2F)=NC1c1ccc(F)cc1Cl (stereo not drawn) | 163 to 164 °C |  | 
18 | COC(=O)C1=C(CN(CCO)CCO)NC(c2ncccc2F)=NC1c1ccc(F)cc1Cl (stereo not drawn) | 119 to 120 °C |  | 

Row | Structure (SMILES) | melting point | IC50 (hepatitis B virus) | Tox50 (HepG2.2.15 cells)
19 | COC(=O)C1=C(CN(CCO)Cc2ccccc2)NC(c2ncccc2F)=NC1c1ccc(F)cc1Br (stereo not drawn) | 121 °C |  | 
20 | COC(=O)C1=C(CN(CCO)Cc2ccccc2)NC(c2ncc(F)cc2F)=NC1c1ccc(F)cc1Br (stereo not drawn) | 135 °C |  | 
21 | COC(=O)C1=C(CN(CCO)Cc2ccccc2)NC(c2ncccc2F)=NC1c1ccc(F)cc1Cl (stereo not drawn) | 128 °C |  | 
22 | COC(=O)C1=C(CN2CCSC2)NC(c2nccs2)=NC1c1ccc(Cl)cc1Cl (stereo not drawn) | 169 to 170 °C |  | 
23 | COC(=O)C1=C(CN(CCO)CCO)NC(c2nccs2)=NC1c1ccc(Cl)cc1Cl (stereo not drawn) | 133 °C |  | 
24 | COC(=O)C1=C(CN(C)CCO)NC(c2nccs2)=NC1c1ccc(Cl)cc1Cl (stereo not drawn) | 132 °C |  | 
25 | COC(=O)C1=C(Cn2ccnc2)NC(c2ncc(F)cc2F)=NC1c1ccc(F)cc1Br (stereo not drawn) | 123 to 126 °C |  | 
26 | COC(=O)C1=C(CN2CCCCC2)NC(c2ncccc2F)=NC1c1ccc(Cl)cc1Cl (stereo not drawn) | 155 to 156 °C |  | 
27 | COC(=O)C1=C(CCN2CCSC2)NC(c2ncc(F)cc2F)=NC1c1ccc(F)cc1Cl (stereo not drawn) [Example 2, Methyl 4-(2-chloro-4-fluorophenyl)-2-(3,5-difluoro-2-pyridyl)-6-[2-(1,3-thiazolidin-3-yl)-ethyl]-1,4-dihydropyrimidine-5-carboxylate] |  | 400 nM | 38 µM
28 | COC(=O)C1=C(CN2CCOCC2)NC(c2ncc(F)cc2F)=N[C@H]1c1ccc(F)cc1Cl [Example 5] | 178 °C | 2 nM | 40 µM
29 | COC(=O)C1=C(CN2CCOCC2)NC(c2ncccc2F)=NC1c1ccc(Cl)cc1Cl (stereo not drawn) [Example 7] | 182 to 183 °C | 25 nM | 25 µM
30 | COC(=O)C1=C(CN2CCOCC2)NC(c2ncc(F)cc2F)=NC1c1ccc(F)cc1Br (stereo not drawn) [Example 9] | 216 to 218 °C | 7 nM | 17 µM
31 | COC(=O)C1=C(CN2CCSCC2)NC(c2ncc(F)cc2F)=N[C@H]1c1ccc(F)cc1Cl [Example 11] |  | 40 nM | >8 µM
32 | COC(=O)C1=C(CN2CCSCC2)NC(c2ncc(F)cc2F)=NC1c1ccc(Cl)cc1Cl (stereo not drawn) [Example 15] | 166 to 168 °C | 50 nM | 3 µM
33 | COC(=O)C1=C(CN2CCOCC2)NC(c2ncccc2F)=NC1c1ccc(F)cc1Br (stereo not drawn) [Example 24] | 156 to 158 °C | 20 nM | 80 µM
34 | COC(=O)C1=C(CN2CCOCC2)NC(c2ncc(F)cc2F)=N[C@H]1c1ccc(F)cc1Br [Example 31] | 189 to 190 °C | 2 nM | 63 µM
35 | COC(=O)C1=C(CN2CCOCC2)NC(c2ncccc2F)=NC1c1ccc(F)cc1Cl (stereo not drawn) [Example 34] | 161 to 163 °C | 9 nM | 60 µM
36 | COC(=O)C1=C(CN2CCOCC2)NC(c2nccs2)=NC1c1ccc(Cl)cc1Cl (stereo not drawn) [Example 45] | 149 °C | 2 nM | 34 µM
